The values that follow come from US5120718A, “Candida acid protease inhibiting compounds” (priority 1991, dated 1992).

Molecules are shown by their SMILES. pIC50: −log10 of the molar value. Where a name gives a salt, the structure may show the parent alone. Where a SMILES comes first, the peptide text is derived from it. [ ]: non-standard residue; d: D form. The star is where a group is joined. Sta = CC(C)C[C@H](N)[C@@H](O)CC(=O)O; Isovaleryl = CC(C)CC(=O)*

The subject of one assay is Candida acid protease.
Test: not given
As to conditions: background art; cited from earlier work.
On to `CC(C)C[C@H](NC(=O)[C@@H](NC(=O)N[C@@H](Cc1ccccc1)C(=O)O)[C@@H]1CCN=C(N)N1)C(=O)N[C@H](C=O)Cc1ccccc1` [chymostatin], for which the “potency as inhibitor of Candida acid protease (in words)” value is “not very potent inhibitors of the enzyme” and the “specificity (in words)” value was “non-specific”.

Regarding `CC(C)CC(=O)N[C@H](C(=O)N[C@H](C(=O)N[C@@H](CC(C)C)[C@@H](O)CC(=O)N[C@@H](C)C(=O)N[C@@H](CC(C)C)[C@@H](O)CC(=O)O)C(C)C)C(C)C` [Pepstatin A] (Isovaleryl-VV[Sta]A[Sta]-OH), the “potency as inhibitor of Candida acid protease (in words)” value was “not very potent inhibitors of the enzyme” and the “specificity (in words)” value is “non-specific”.

The target in the next assay is T1, Candida albicans acid protease (Candida albicans, UniProt P0DJ06).
T1 construct: endogenous in cells; host or cells: Candida albicans ATCC10231 (proteinase secreted into the culture medium, purified in house)
T1 sequence (P0DJ06 57-398): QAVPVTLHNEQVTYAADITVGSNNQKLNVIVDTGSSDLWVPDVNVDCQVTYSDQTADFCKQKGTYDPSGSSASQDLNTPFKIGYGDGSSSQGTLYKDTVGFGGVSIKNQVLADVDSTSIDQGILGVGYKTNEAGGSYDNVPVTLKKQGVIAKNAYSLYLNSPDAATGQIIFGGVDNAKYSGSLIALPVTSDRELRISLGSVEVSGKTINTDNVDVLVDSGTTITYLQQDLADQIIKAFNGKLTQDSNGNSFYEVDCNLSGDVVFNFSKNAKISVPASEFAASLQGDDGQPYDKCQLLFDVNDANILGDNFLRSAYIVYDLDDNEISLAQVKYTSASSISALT
The assay can be described thus: In vitro inhibitor assay, microtiter assay with fluorogenic substrate A78331. The class given is biochemical, Candida albicans ATCC10231.
Conditions: not given
The protocol: Isolation and Purification of Candida albican Acid Protease Organism and growth conditions. Candida albicans ATCC10231 was grown overnight in Sabouraud broth (Difco) at 30° C. Cells were centrifuged at 10,000xg for 10 min (4° C.) and the cell pellet washed once with 10 mM phosphate buffered saline (PBS), pH7.0. Washed cells (6×10^6 colony forming units per mL) were grown in yeast nitrogen base without ammonium sulfate or amino acids (Difco), plus 2% glucose and 0.1% casein (nitrogen source) at 37° C.
Proteinase isolation. […] Cells were then harvested at 10,000xg for 20 min (4° C.) and the supernatant filtered through a 0.2μ acetate filter unit (Nalgen). The filtrate was concentrated on an Amicon concentrator (PM30 or YM10 membrane, 75 mm) and 30 mL of the concentrate was loaded onto a Cibacron blue F3GA-6% agarose (Pierce Chem.) column (1.5x44cm) equilibrated with 10 mM sodium citrate, pH 6.5, containing lmM EDTA and 0.02% sodium azide (Ray, T. L., and Payne, C. D. Infection and Immunity 58:508-514, 1990). Bovine serum albumin (BSA) was used as substrate to monitor the column for proteinase activity and to determine total proteolytic units. One BSA proteolytic unit was defined as an optical density (750 nm wavelength) increase of 0.100 under incubation conditions of 37° C. for 60 min (Remold, H., Fasold, H., and Staib, F. Biochimica et Biophysica Acta I67:399-406, 1968). […] Proteinase purity and molecular weight was determined by the Phast-gel (12.5% acrylamide) electrophoresis system (Pharmacia). Protein was determined by the Lowry method (Lowry, O. H., Rosenbrough, N. J., Farr, A. L., and Randall, R. J. Journal of Biological Chemistry 193:263-275, 1951). A fluorogenic substrate, A78331, may also be used to monitor proteinase production and purification. This substrate, DABCYL-Gaba-[…]EDANS (Holzman, T. F., Chung, C. C., Edalji, R., Egan, D. A., Gubbins, E. J., Rueter, A., Howard, G., Yang, L. K., Pederson, T. M., Krafft, G. A., and Wang, G. T. Journal of Protein Chemistry 9:663-672, 1990) contains the fluorescent EDANS group, [5-(2-aminoethyl)-amino]naphthalene-1-sulfonic acid, which is quenched by the DABCYL group, 4-(4-dimethyl-aminophenylazo)benzoic acid, as long as it is part of the molecule (Matayoshi, E. D., Wang, G. T., Krafft, G. A., and Erickson, J. Science 247:954-958, 1990). Proteolysis of this compound by the fungal proteinase releases Thr-EDANS, which when activated at 340 nm fluoresces at 490 nm with the same intensity as equimolar EDANS. Activity is expressed in terms of nmol EDANS released from 32 μM A78331 under incubation conditions of 22° C. for 60 min.
In Vitro Inhibitor Assay Method
Microtiter assay. The assay for inhibitors of C. albicans acid proteinase was done in microtiter trays with the fluorogenic substrate A78331. […] The reaction mixture consisted of 5μL test compound or dimethyl sulfoxide and 45μL of fungal proteinase (0.13 BSA proteolytic units or 0.13 nmol EDANS released) in 50 mM sodium citrate, pH 4.5, which was preincubated at 22° C. for 30 min. The reaction was started with the addition of 50μL fluorogenic substrate in citrate buffer and the incubation was continued at 22° C. for 90 min. The reaction was terminated with 150μL pepstatin (final concentration of 1μM) and 210μL samples were transfered to microfluor plates for fluorescence quantitation in a luminescence spectrophotometer (Perkin-Elmer model LS-50). The excitation wavelength was 340 nm and the emission was monitored at 490 nm (430 nm filter employed). Inhibition was expressed as % change in relative intensity from the dimethyl sulfoxide control group (no inhibitor). IC50's were determined from plots of log dose versus % inhibition from control.
Usually pIC50 stands for the IC50 on a negative log10 scale, so that one unit is a factor of ten. Low values mean a high IC50, high ones a low IC50. On to `CCCC[C@@H](C(=O)N[C@@H](CC1CCCCC1)[C@@H](O)C[C@@H](C(=O)NCCCN(C)C)C(C)C)N1CCN(C(=O)N2CCN(C)CC2)[C@H](Cc2ccccc2)C1=O` [Example 18, (2S)-2{(3R)-3-Benzyl-4-N-(4-methylpiperazin-1-yl-carbonyl)-2-keto-piperazin-1-yl}-hexanoic acid Amide of (2R,4S,5S)-5-Amino-6-cyclohexyl-4-hydroxy-2-isopropylhexanoyl N-[3-(Dimethylamino)propyl]amide], for which the pIC50 was 8.42.

In the case of `CCCCNC(=O)[C@H](C[C@H](O)[C@H](CC1CCCCC1)NC(=O)[C@H](CCCC)N1CCN(C(=O)N2CCN(C)CC2)[C@H](Cc2ccccc2)C1=O)C(C)C` [Example 1, (2S)-2-((3R)-3-Benzyl-4-N-(4-methylpiperazin-1-yl-carbonyl)-2-keto-piperazin-1-yl}-hexanoic acid Amide of (2R,4S,5S)-5-amino-6-cyclohexyl-4-hydroxy-2-isopropylhexanoyl N-(n-Butyl)amide Hydrochloride], the pIC50 is 8.89. This pIC50 lies 0.47 log units higher than the previous one.

Compound `CCCCNC(=O)[C@H](C[C@H](O)[C@H](CC1CCCCC1)NC(=O)[C@H](CCCC)N1CCN(S(=O)(=O)c2ccc(OC)cc2)[C@H](Cc2ccccc2)C1=O)C(C)C` [Example 5, (2S)-2-{(3R)-3-Benzyl-4-N-(4-methoxybenzene-sulfonyl)-2-keto-piperazin-1-yl)-hexanoic acid Amide of (2R,4S,5S)-5-Amino-6-cyclohexyl-4-hydroxy-2-isopropylhexanoyl N-(n-Butyl)amide] gave a pIC50 of 7.88.

`CCCC[C@@H](C(=O)N[C@@H](CC1CCCCC1)[C@@H](O)C[C@@H](C(=O)NCCCN1CCOCC1)C(C)C)N1CCN(S(=O)(=O)N2CCN(C)CC2)[C@@H](Cc2ccccc2)C1=O` [Example 15, (2S)-2-{(3S)-3-Benzyl-4-N-(4-methylpiperazin-1-yl-sulfonyl)-2-keto-piperazine-1-yl}-hexanoic acid Amide of (2R,4S,5S)-5-Amino-6-cyclohexyl-4hydroxy-2-isopropylhexanoyl N-[3-(N-Morpholinyl)propyl]amide] had a pIC50 of 8.42.

For the compound `CCCCNC(=O)[C@H](C[C@H](O)[C@H](CC1CCCCC1)NC(=O)[C@H](CCCC)N1C[C@@H](Cc2ccccc2)N(S(=O)(=O)c2ccc(C)cc2)CC1=O)C(C)C` [Example 3, (2S)-2-{(3R)-3-Benzyl-4-N-(4-methylbenzene-sulfonyl)-6-keto-piperazin-1-yl}-hexanoic acid Amide of (2R,4S,5S)-5-Amino-6-cyclohexyl-4-hydroxy-2-isopropylhexanoyl N-(n-Butyl)amide], the pIC50 is 7.52.

Compound `CCCC[C@@H](C(=O)N[C@@H](CC1CCCCC1)[C@@H](O)C[C@@H](C(=O)NCCN(C)C)C(C)C)N1CCN(C(=O)N2CCN(C)CC2)[C@H](Cc2ccccc2)C1=O` [Example 17] gave a pIC50 of 8.21.

As for `CCCCNC(=O)[C@H](C[C@H](O)[C@H](CC1CCCCC1)NC(=O)[C@H](CCCC)N1CCN(S(=O)(=O)N2CCN(C)CC2)[C@@H](Cc2ccccc2)C1=O)C(C)C` [Example 13], the pIC50 is 8.57.

For `CCCCNC(=O)[C@H](C[C@H](O)[C@H](CC1CCCCC1)NC(=O)[C@H](CCCC)N1CCN(C(=O)N2CCC(OCOC)CC2)[C@@H](Cc2ccccc2)C1=O)C(C)C` [Example 14, 2S-(3S-Benzyl-4-N-(4-methoxymethoxypiperidinyl-carbonyl)-2-keto-piperazin-1-yl)-hexanoic acid Amide of (2R,4,5S) -5-Amino-6-cyclohexyl-4-hydroxy-2-isopropylhexanoyl N-(n-Butyl)amide], the pIC50 is 8.35.

For `CCCC[C@@H](C(=O)N[C@@H](CC1CCCCC1)[C@@H](O)C[C@@H](C(=O)NCCCN1CCOCC1)C(C)C)N1CCN(C(=O)N2CCN(C)CC2)[C@@H](Cc2ccccc2)C1=O` [Example 12, (2S)-2-{(3S)-3-Benzyl-4-N-(4-methylpiperazin-1-yl-carbonyl)-2-keto-piperazin-1-yl}-hexanoic acid Amide of (2R,4S,5S)-5-Amino-6-cyclohexyl-4-hydroxy-2-isopropylhexanoyl N-3-(N-Morpholinyl)propyllamide], the negative logarithm of the IC50 (pIC50) was 8.42.

With `CCCC[C@@H](C(=O)N[C@@H](CC1CCCCC1)[C@@H](O)C[C@@H](C(=O)NCCCN1CCOCC1)C(C)C)N1CCN(C(=O)N2CCC(OCOC)CC2)[C@@H](Cc2ccccc2)C1=O` [Example 16, (2S)-2-{(3S)-3-Benzyl-4-N-(4-methoxymethoxypiperidin-1-yl-carbonyl)-2-keto-piperazin-1-yl}-hexanoic acid Amide of (2R, 4S, 5S)-5-Amino-6-cyclohexyl-4-hydroxy-2-isopropylhexanoyl N-[3-(N-Morpholinyl)propyl]amide], the pIC50 is 8.30.

Take `CCCC[C@@H](C(=O)N[C@@H](CC1CCCCC1)[C@@H](O)[C@@H](O)CC(C)C)N1CCN(S(=O)(=O)c2ccc(NC)cc2)[C@H](Cc2ccccc2)C1=O` [Example 11, (2S)-2-{(3R)-3-Benzyl-4-N-(4-(methylamino)benzene-sulfonyl)-2-keto-piperazin-1-yl}-hexanoic acid Amide of (2S,3R,4S)-2-Amino-1-cyclohexyl-3,4-dihydroxyl-6-methylheptane]: the pIC50 was 7.07.
